Test results published in patent US10246469B2, “Biaryl kinase inhibitors” (BRISTOL-MYERS SQUIBB COMPANY, priority 2015, dated 2019).

Biological target: T1, GST-Xa-hAAK1 (Homo sapiens, UniProt Q2M2I8)
T1 construct: GST (N); Factor Xa cleavage site (Xa) (internal); made in house
Experiment: AAK1 Kinase Assay
Format: biochemical
Details: bacterially expressed GST-Xa-hAAK1 3.5 nM; ATP 22 μM; fluoresceinated peptide 1.5 μM; 3 hours at room temperature; Caliper LabChip 3000
Protocol: The assays were performed in U-bottom 384-well plates. The final assay volume was 30 μl prepared from 15 μl additions of enzyme and substrates (fluoresceinated peptide (5-FAM)-Aha-[…]-NH2 and ATP) and test compounds in assay buffer (10 mM Tris-HCL pH 7.4, 10 mM MgCl2, 0.01% Tween-20 and 1.0 mM DTT). The reactions were initiated by the combination of bacterially expressed, GST-Xa-hAAK1 with substrates and test compounds. The reactions were incubated at room temperature for 3 hours and terminated by adding 60 μl of 35 mM EDTA buffer to each sample. The reactions were analyzed on the Caliper LabChip 3000 (Caliper, Hopkinton, Mass.) by electrophoretic separation of the fluorescent substrate and phosphorylated product. […] The final concentration of reagents in the assays are ATP, 22 μM; (5-FAM)-Aha-[…]-NH2, 1.5 μM; GST-Xa-hAAK1, 3.5 nM; and DMSO, 1.6%. […] Compounds were dissolved at 10 mM in dimethylsulfoxide (DMSO) and evaluated at eleven concentrations. IC50 values were derived by non-linear regression analysis.

T1 sequence (Q2M2I8 whole entry): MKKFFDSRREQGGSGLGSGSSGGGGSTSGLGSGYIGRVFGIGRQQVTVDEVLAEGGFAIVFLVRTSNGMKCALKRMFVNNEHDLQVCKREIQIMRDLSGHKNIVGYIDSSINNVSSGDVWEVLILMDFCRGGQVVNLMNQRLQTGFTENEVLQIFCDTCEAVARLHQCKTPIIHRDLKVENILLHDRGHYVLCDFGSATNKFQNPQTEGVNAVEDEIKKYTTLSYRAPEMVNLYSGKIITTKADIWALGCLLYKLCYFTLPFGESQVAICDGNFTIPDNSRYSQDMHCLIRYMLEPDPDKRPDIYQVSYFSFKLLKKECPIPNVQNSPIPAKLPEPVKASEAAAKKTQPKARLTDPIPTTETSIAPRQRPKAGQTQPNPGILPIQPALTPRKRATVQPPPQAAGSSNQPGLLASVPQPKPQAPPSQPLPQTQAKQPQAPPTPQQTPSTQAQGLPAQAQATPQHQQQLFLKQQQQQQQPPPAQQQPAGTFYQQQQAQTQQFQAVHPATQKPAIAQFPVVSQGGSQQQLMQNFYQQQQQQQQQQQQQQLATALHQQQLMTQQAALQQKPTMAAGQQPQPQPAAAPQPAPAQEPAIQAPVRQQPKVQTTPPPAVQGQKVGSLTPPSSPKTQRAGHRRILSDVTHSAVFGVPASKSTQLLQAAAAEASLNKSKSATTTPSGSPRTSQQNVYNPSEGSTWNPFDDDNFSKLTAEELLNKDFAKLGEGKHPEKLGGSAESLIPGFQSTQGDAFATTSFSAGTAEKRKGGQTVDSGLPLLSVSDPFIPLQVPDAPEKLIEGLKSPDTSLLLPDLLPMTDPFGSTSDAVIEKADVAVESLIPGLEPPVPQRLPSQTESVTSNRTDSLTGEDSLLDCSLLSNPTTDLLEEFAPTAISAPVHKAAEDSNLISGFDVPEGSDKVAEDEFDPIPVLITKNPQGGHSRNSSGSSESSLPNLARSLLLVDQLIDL

Row | SMILES | IC50 [nM]
1 | CC(C)C[C@](C)(N)COc1ccc(-c2cnn3cccnc23)cc1C(F)(F)F [Example 473, (S)-2,4-dimethyl-1-(4-(pyrazolo[1,5-a]pyrimidin-3-yl)-2-(trifluoromethyl)phenoxy)pentan-2-amine] | 112
2 | Cc1nc2nccc(-c3ccc(OC[C@@](C)(N)CC(C)C)c(C#N)c3)c2nc1C [Example 252, (S)-2-((2-amino-2,4-dimethylpentyl)oxy)-5-(2,3-dimethylpyrido[2,3-b]pyrazin-8-yl)benzonitrile] | 285
3 | Cc1nc2c(-c3ccc(OC[C@@](C)(N)CC(C)C)c(C)c3)ccnc2[nH]1 [Example 294, (S)-2,4-dimethyl-1-(2-methyl-4-(2-methyl-3H-imidazo[4,5-b]pyridin-7-yl)phenoxy)pentan-2-amine] | 120
4 | CC(C)C[C@](C)(N)COc1ccc(-c2cc(Cl)nn3cc(C4CC4)nc23)cc1C#N [Example 494, (5)-2-((2-amino-2,4-dimethylpentyl)oxy)-5-(6-chloro-2-cyclopropylimidazo[1,2-b]pyridazin-8-yl)benzonitrile] | 222
5 | CC(C)C[C@](C)(N)COc1ccc(-c2ccnc3c2C(=O)N(C)C3)cc1C(F)(F)F [Example 426, (S)-4-(4-((2-amino-2,4-dimethylpentyl)oxy)-3-(trifluoromethyl)phenyl)-6-methyl-6,7-dihydro-5H-pyrrolo [3,4-b]pyridin-5-one] | 7.2
6 | CC(C)C[C@](C)(N)COc1ccc(-c2ncnc3cc(F)c(F)cc23)cc1C(F)(F)F [Example 471, (S)-1-(4-(6,7-difluoroquinazolin-4-yl)-2-(trifluoromethyl)phenoxy)-2,4-dimethylpentan-2-amine] | 6.3
7 | Cc1cc(-c2ccnc3c2C(=O)N(C)C3)ccc1OC[C@@](C)(N)CC(C)C [Example 430, (S)-4-(4-((2-amino-2,4-dimethylpentyl)oxy)-3-methylphenyl)-6-methyl-6,7-dihydro-5H-pyrrolo[3,4-b]pyridin-5-one] | 67
8 | CC(C)C[C@](C)(N)COc1ccc(-c2ccnc(NC3CCCOC3)c2)cc1C(F)(F)F (mixture of isomers) [Example 475, 4-(4-((S)-2-amino-2,4-dimethylpentyloxy)-3-(trifluoromethyl)phenyl)-N-(tetrahydro-2H-pyran-3-yl)pyridin-2-amine] | 15
9 | Cc1nc2c(-c3ccc(OC[C@@](C)(N)CC(C)C)c(C#N)c3)ccnc2[nH]1 [Example 293, (S)-2-((2-amino-2,4-dimethylpentyl)oxy)-5-(2-methyl-3H-imidazo[4,5-b]pyridin-7-yl)benzonitrile] | 14
10 | CC(C)C[C@](C)(N)COc1ccc(-c2ccnn3ccnc23)cc1 [Example 281, (S)-1-(4-(imidazo[1,2-b]pyridazin-8-yl)phenoxy)-2,4-dimethylpentan-2-amine] | 3.4
11 | Cc1cc(-c2ccnc3c2C(=O)NC3)ccc1OC[C@@](C)(N)CC(C)C [Example 428, (S)-4-(4-((2-amino-2,4-dimethylpentyl)oxy)-3-methylphenyl)-6,7-dihydro-5H-pyrrolo[3,4-b]pyridin-5-one] | 13
12 | CC(C)C[C@](C)(N)COc1ccc(-c2ncnc3c2ccn3C)cc1F [Example 365, (S)-1-(2-fluoro-4-(7-methyl-7H-pyrrolo [2,3-d]pyrimidin-4-yl)phenoxy)-2,4-dimethylpentan-2-amine] | 98
13 | CC(C)C[C@](C)(N)COc1ccc(-c2ncnc3c2ccn3C)cc1C(F)(F)F [Example 366, (S)-2,4-dimethyl-1-(4-(7-methyl-7H-pyrrolo[2,3-d]pyrimidin-4-yl)-2-(trifluoromethyl)phenoxy)pentan-2-amine] | 60
14 | CC(C)C[C@](C)(N)COc1ccc(-c2ccnc3cc(C(F)(F)F)nn23)cc1C#N [Example 485, (S)-2-((2-amino-2,4-dimethylpentyl)oxy)-5-(2-(trifluoromethyl)pyrazolo[1,5-a]pyrimidin-7-yl)benzonitrile] | 4.5
15 | CC(C)C[C@](C)(N)COc1ccc(-c2ccnc(NC3CCCOC3)c2)cc1C(F)(F)F (single isomer, unassigned) [Example 476] | 125
16 | CC(C)C[C@](C)(N)COc1ccc(-c2ccnc(NC3CCCOC3)c2)cc1Cl (single isomer, unassigned) [Example 339] | 17
17 | CC(C)C[C@](C)(N)COc1ccc(-c2ccnc3c2C(=O)N(C)C3)cc1Cl [Example 429, (S)-4-(4-((2-amino-2,4-dimethylpentyl)oxy)-3-chlorophenyl)-6-methyl-6,7-dihydro-5H-pyrrolo[3,4-b]pyridin-5-one] | 36
18 | Cc1n[nH]c(C)c1-c1ccc(OC[C@@](C)(N)CC(C)C)c(F)c1 [Example 251, (S)-1-(4-(3,5-dimethyl-1H-pyrazol-4-yl)-2-fluorophenoxy)-2,4-dimethylpentan-2-amine] | 310
19 | CC(C)C[C@](C)(N)COc1ccc(-c2ccnc(Nc3ccc4c(c3)OCO4)c2)cc1C(F)(F)F [Example 412, (S)-4-(4-((2-amino-2,4-dimethylpentyl)oxy)-3-(trifluoromethyl)phenyl)-N-(benzo[d][1,3]dioxol-5-yl) pyridin-2-amine] | 6.4
20 | Cc1cc(-c2ccnn3cc(C(F)(F)F)nc23)ccc1OC[C@@](C)(N)CC(C)C [Example 500, (S)-2,4-dimethyl-1-(2-methyl-4-(2-(trifluoromethyl)imidazo[1,2-b]pyridazin-8-yl)phenoxy)pentan-2-amine] | 30

Stronger by IC50, values ahead:

Row | IC50 [nM] | SMILES
21 | 0.3 | CC(C)C[C@](C)(N)COc1ccc(-c2ccnc(NC(=O)c3ccco3)c2)cc1C(F)(F)F [Example 400, (S)—N-(4-(4-((2-amino-2,4-dimethylpentyl)oxy)-3-(trifluoromethyl)phenyl)pyridin-2-yl)furan-2-carboxamide]
22 | 2 | Cc1ncccc1C(=O)Nc1cc(-c2ccc(OC[C@@](C)(N)CC(C)C)c(C(F)(F)F)c2)ccn1 [Example 405, (S)—N-(4-(4-((2-amino-2,4-dimethylpentyl)oxy)-3-(trifluoromethyl)phenyl)pyridin-2-yl)-2-methylnicotinamide]
23 | 3.1 | CC(C)C[C@](C)(N)COc1ccc(-c2ccnc3c2C(=O)NC3)cc1C#N [Example 415, (S)-2-((2-amino-2,4-dimethylpentyl)oxy)-5-(5-oxo-6,7-dihydro-5H-pyrrolo[3,4-b]pyridin-4-yl)benzonitrile]
24 | 0.9 | CC(C)C[C@](C)(N)COc1ccc(-c2ccnc3ccnn23)nc1CF [Example 276, (S)-1-((2-(fluoromethyl)-6-(pyrazolo[1,5-a]pyrimidin-7-yl)pyridin-3-yl)oxy)-2,4-dimethylpentan-2-amine]
25 | 1.7 | Cc1cc(-c2ccnc(NC3CC3)n2)ccc1OC[C@@](C)(N)CC(C)C [Example 369, (S)-4-(4-((2-amino-2,4-dimethylpentyl)oxy)-3-methylphenyl)-N-cyclopropylpyrimidin-2-amine]
26 | 0.5 | CC(C)C[C@](C)(N)COc1ccc(-c2ccnc3cc[nH]c23)cc1C#N [Example 421, (S)-2-((2-amino-2,4-dimethylpentyl)oxy)-5-(1H-pyrrolo[3,2-b]pyridin-7-yl)benzonitrile]
27 | 1.1 | CC(C)C[C@](C)(N)COc1ccc(-c2ccnc(NCc3ccco3)c2)cc1C(F)(F)F [Example 411, (S)-4-(4-((2-amino-2,4-dimethylpentyl)oxy)-3-(trifluoromethyl)phenyl)-N-(furan-2-ylmethyl)pyridin-2-amine]
28 | 1.4 | CC(C)C[C@](C)(N)COc1ccc(-c2ccnc3c2C(=O)NC3)cc1C(F)(F)F [Example 425, (S)-4-(4-((2-amino-2,4-dimethylpentyl)oxy)-3-(trifluoromethyl)phenyl)-6,7-dihydro-5H-pyrrolo [3,4-b]pyridin-5-one]
29 | 0.7 | CC(C)C[C@](C)(N)COc1ccc(-c2ccnc(NC(=O)CC3CCCC3)c2)cc1C(F)(F)F [Example 392, (S)—N-(4-(4-((2-amino-2,4-dimethylpentyl)oxy)-3-(trifluoromethyl)phenyl)pyridin-2-yl)-2-cyclopentylacetamide]
30 | 0.2 | CC(C)C[C@](C)(N)COc1ccc(-c2ccnc(Nc3nccs3)n2)cc1C(F)(F)F [Example 371, (S)—N-(4-(4-((2-amino-2,4-dimethylpentyl)oxy)-3-(trifluoromethyl)phenyl)pyrimidin-2-yl)thiazol-2-amine]
31 | 0.4 | CC(C)C[C@](C)(N)COc1ccc(-c2ncnc3[nH]ccc23)cc1C(F)(F)F [Example 363, (S)-1-(4-(7H-pyrrolo[2,3-d]pyrimidin-4-yl)-2-(trifluoromethyl)phenoxy)-2,4-dimethylpentan-2-amine]
32 | 0.36 | CC(C)C[C@](C)(N)COc1ccc(-c2ccnc(NC(=O)c3nccs3)c2)cc1C#N [Example 261, (S)—N-(4-(4-((2-amino-2,4-dimethylpentyl)oxy)-3-cyanophenyl)pyridin-2-yl)thiazole-2-carboxamide]
33 | 0.45 | CC(C)C[C@](C)(N)COc1ccc(-c2ccnc(Nc3nccs3)c2)cc1Cl [Example 257, (S)—N-(4-(4-((2-amino-2,4-dimethylpentyl)oxy)-3-chlorophenyl)pyridin-2-yl)thiazol-2-amine]
34 | 0.4 | CC(C)C[C@](C)(N)COc1ccc(-c2ccnc3[nH]ncc23)cc1C(F)(F)F [Example 292, (S)-1-(4-(1H-pyrazolo[3,4-b]pyridin-4-yl)-2-(trifluoromethyl)phenoxy)-2,4-dimethylpentan-2-amine]
